Assay [1] concerns the target Serine/threonine-protein kinase 4 (Homo sapiens) (UniProt Q13043). Put plainly: Inhibition of MST1 Lys1 labeling site harbouring AIHKETGQIVAIKQVPVESDLQEIIK in human A-375 cells at 5 uM by KiNativ Profiling analysis relative to control.
Assay [2] addresses Putative phosphatidylinositol 4-kinase alpha-like protein P2 (Homo sapiens) (UniProt A4QPH2). As to the kind of experiment: Inhibition of PI4KAP2 ATP labeling site in human A-375 cells at 0.05 uM by KiNativ Profiling analysis relative to control. The format is cell-based.
In assay [3] the target is T1, Dual specificity mitogen-activated protein kinase kinase 4 (Homo sapiens) (UniProt P45985).
T1 sequence (whole entry): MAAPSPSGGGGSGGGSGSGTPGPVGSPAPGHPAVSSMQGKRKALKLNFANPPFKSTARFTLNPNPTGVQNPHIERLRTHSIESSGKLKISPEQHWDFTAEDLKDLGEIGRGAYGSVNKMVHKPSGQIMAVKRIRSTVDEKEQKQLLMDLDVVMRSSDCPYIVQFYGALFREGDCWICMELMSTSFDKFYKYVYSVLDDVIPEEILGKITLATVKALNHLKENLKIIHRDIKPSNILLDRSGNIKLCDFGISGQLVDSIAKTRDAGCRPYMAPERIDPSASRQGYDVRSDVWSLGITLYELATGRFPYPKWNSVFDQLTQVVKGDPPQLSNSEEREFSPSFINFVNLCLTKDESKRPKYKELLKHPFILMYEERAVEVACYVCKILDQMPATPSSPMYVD
As to the kind of experiment: Inhibition of MAP2K4 K2 labeling site harbouring DIKPSNILLDR in human Huh-7 cells at 10 uM by KiNativ Profiling analysis relative to control. The assay is classed as cell-based.

The target of assay [4] is Tyrosine-protein kinase receptor TYRO3 (Homo sapiens) (UniProt Q06418). Put plainly: Inhibition of TYRO3 (unknown origin) at 10 uM by Ambit Kinomescan binding assay.
Assay [5] deals with Casein kinase I isoform alpha (Homo sapiens) (UniProt P48729). As to the kind of experiment: Inhibition of CK1 alpha K2 labeling site in human Huh-7 cells at 1 uM by KiNativ Profiling analysis relative to control. The format is cell-based.
Assay [6] has as its system Tyrosine-protein kinase ABL1 (Homo sapiens), P00519 [Q252H]. As to the kind of experiment: Inhibition of ABL1 Q252H mutant (unknown origin) at 10 uM by Ambit Kinomescan binding assay relative to control.
Assay [7] addresses Serine/threonine-protein kinase SIK1 (Homo sapiens) (UniProt P57059). Put plainly: Inhibition of SIK1 K2 labeling site in human Huh-7 cells at 10 uM by KiNativ Profiling analysis relative to control. The assay is classed as cell-based.
The subject of assay [8] is Mast/stem cell growth factor receptor Kit (Homo sapiens), P10721 [V559D]. Put plainly: Inhibition of KIT V559D mutant (unknown origin) at 10 uM by Ambit Kinomescan binding assay relative to control.
For assay [9], the target named is STE20-like serine/threonine-protein kinase (Homo sapiens) (UniProt Q9H2G2). As to the kind of experiment: Inhibition of SLK K2 labeling site harbouring IIHRDLKAGNILFTLDGDIK in human Huh-7 cells at 10 uM by KiNativ Profiling analysis relative to control. The format is cell-based.
STE20-like serine/threonine-protein kinase (Homo sapiens), sequence (Q9H2G2 whole entry, looked up): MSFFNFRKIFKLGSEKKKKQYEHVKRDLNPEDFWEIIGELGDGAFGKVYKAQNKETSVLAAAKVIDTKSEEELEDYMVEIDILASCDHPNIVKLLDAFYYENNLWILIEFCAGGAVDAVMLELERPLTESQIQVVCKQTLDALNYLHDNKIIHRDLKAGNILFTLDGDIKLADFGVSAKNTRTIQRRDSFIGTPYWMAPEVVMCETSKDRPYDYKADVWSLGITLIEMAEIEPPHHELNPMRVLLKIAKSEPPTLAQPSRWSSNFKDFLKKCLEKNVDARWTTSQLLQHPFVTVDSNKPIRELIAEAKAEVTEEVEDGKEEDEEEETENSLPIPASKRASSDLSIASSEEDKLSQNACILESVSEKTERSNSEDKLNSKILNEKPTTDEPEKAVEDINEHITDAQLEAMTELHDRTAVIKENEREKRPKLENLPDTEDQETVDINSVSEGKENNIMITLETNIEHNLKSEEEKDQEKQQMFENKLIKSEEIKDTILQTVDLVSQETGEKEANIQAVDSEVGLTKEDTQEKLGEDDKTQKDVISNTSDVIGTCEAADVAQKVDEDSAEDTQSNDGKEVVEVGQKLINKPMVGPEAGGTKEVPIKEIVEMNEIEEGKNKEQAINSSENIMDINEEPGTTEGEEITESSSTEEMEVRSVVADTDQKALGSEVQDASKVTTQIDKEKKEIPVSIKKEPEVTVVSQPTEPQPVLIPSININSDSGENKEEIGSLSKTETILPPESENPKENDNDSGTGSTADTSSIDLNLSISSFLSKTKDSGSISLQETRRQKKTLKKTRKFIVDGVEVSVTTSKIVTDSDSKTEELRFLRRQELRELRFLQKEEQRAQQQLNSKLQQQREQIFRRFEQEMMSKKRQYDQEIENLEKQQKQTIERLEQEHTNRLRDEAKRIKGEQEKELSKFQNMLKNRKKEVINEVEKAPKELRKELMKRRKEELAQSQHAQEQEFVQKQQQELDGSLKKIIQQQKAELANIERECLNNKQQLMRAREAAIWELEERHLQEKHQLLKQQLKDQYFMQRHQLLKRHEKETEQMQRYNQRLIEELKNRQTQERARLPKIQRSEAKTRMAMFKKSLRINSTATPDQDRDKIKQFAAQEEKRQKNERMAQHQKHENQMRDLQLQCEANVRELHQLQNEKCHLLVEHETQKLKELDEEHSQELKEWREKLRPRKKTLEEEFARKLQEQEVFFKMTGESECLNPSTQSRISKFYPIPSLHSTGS
Assay [10] deals with Calcium/calmodulin-dependent protein kinase type 1G (Homo sapiens) (UniProt Q96NX5). As to the kind of experiment: Inhibition of CAMK1G (unknown origin) at 10 uM by Ambit Kinomescan binding assay relative to control.
Calcium/calmodulin-dependent protein kinase type 1G (Homo sapiens), sequence (Q96NX5 whole entry): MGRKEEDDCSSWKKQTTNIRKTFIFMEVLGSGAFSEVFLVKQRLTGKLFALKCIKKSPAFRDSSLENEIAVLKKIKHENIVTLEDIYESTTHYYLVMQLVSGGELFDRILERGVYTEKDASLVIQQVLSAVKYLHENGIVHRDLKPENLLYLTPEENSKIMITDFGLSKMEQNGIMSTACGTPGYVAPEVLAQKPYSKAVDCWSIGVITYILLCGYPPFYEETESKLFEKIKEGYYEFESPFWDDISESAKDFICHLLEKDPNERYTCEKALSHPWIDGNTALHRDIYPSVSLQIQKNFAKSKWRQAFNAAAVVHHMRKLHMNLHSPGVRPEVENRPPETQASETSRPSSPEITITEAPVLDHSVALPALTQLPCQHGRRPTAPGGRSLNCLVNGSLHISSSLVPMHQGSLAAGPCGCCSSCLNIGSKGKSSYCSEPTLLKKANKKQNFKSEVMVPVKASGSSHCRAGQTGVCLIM
The target of assay [11] is T2, Serine/threonine-protein kinase TBK1 (Homo sapiens) (UniProt Q9UHD2).
T2 sequence (whole entry): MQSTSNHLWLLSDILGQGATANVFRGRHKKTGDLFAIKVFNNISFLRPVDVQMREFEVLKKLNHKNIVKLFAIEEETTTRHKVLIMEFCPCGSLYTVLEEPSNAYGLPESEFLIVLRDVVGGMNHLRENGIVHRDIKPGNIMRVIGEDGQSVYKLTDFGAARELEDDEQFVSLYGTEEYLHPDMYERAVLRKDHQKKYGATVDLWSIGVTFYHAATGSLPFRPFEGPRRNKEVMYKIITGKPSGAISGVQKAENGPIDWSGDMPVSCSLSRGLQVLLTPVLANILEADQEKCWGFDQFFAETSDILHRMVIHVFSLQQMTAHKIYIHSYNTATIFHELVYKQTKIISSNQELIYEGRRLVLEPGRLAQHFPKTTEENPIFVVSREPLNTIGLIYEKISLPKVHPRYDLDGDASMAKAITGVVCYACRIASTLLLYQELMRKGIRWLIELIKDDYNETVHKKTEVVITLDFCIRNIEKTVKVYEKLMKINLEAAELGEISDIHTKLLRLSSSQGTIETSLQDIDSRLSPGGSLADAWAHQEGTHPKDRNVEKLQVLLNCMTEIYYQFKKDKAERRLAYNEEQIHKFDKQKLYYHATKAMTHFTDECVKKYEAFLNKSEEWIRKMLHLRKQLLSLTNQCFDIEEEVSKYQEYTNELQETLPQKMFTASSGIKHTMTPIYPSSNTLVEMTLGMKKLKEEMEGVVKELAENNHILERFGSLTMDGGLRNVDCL
As to the kind of experiment: Inhibition of TBK1 Lys2 labeling site in human Huh-7 cell lysate at 1 uM by KiNativ Profiling analysis relative to control. The assay is classed as subcellular.

The target in assay [12] is Ribosomal protein S6 kinase alpha-3 (Homo sapiens) (UniProt P51812). As to the kind of experiment: Inhibition of RSK2 domain2 Lys2 labeling site DLKPSNILYVDESGNPESIR in human Huh-7 cell lysate at 1 uM by KiNativ Profiling analysis relative to control. The assay is classed as subcellular.
The target in assay [13] is Mitogen-activated protein kinase kinase kinase 1 (Homo sapiens) (UniProt Q13233). Put plainly: Inhibition of MAP3K1 Lys2 labeling site in human Huh-7 cell lysate at 1 uM by KiNativ Profiling analysis relative to control. The format is subcellular.
Mitogen-activated protein kinase kinase kinase 1 (Homo sapiens), sequence (Q13233 whole entry): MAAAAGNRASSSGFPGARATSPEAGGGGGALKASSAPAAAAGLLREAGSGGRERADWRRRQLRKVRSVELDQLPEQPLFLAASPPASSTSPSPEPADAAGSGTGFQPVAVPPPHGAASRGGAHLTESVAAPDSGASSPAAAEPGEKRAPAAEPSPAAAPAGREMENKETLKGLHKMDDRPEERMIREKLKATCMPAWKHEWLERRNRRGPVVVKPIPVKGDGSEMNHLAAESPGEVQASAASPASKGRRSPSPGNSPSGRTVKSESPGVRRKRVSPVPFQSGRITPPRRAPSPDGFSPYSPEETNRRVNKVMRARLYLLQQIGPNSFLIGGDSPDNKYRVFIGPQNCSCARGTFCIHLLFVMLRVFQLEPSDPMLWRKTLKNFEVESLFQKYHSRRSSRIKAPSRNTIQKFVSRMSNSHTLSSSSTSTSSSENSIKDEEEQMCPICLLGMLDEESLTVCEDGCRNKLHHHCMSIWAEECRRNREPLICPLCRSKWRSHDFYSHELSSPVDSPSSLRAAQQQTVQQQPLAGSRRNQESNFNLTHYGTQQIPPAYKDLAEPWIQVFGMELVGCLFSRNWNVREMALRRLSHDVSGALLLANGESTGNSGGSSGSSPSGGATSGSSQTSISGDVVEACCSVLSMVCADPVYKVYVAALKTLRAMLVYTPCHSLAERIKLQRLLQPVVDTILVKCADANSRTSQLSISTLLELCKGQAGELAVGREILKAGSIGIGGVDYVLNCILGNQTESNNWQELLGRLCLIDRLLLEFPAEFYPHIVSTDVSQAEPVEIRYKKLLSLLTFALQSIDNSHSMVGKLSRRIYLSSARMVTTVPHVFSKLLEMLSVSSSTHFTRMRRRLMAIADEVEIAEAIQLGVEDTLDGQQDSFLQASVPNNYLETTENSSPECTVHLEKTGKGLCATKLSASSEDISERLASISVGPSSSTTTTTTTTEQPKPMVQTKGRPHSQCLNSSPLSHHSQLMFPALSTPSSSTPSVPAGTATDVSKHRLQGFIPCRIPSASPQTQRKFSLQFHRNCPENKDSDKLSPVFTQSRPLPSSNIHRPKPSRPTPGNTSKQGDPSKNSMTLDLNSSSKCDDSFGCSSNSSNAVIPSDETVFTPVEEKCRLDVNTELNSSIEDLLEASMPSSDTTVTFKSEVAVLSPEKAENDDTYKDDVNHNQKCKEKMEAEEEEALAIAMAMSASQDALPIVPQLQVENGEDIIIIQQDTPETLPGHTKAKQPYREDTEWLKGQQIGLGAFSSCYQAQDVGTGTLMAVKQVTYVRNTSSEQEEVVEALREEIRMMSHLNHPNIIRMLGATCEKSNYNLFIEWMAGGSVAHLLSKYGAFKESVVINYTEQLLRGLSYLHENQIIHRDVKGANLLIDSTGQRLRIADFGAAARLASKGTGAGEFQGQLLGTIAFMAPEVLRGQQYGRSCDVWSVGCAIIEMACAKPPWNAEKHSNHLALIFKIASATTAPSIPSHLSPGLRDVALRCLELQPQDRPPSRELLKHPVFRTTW
In assay [14] the target is T3, Serine/threonine-protein kinase 3 (Homo sapiens) (UniProt Q13188).
T3 sequence (whole entry): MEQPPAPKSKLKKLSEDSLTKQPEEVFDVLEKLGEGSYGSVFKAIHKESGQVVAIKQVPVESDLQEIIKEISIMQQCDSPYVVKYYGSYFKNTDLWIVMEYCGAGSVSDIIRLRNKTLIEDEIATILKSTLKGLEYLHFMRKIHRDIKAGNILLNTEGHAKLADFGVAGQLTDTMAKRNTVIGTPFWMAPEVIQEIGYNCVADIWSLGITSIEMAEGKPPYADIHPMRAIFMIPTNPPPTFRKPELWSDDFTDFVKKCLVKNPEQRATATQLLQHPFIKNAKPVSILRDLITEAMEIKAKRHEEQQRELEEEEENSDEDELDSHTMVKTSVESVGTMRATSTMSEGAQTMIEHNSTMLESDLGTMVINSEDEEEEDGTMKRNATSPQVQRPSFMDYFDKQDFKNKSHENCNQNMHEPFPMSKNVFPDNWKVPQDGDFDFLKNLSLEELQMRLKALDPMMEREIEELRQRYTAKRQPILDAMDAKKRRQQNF
As to the kind of experiment: Inhibition of MST2 Lys2 labeling site harbouring IHRDIKAGNILLNTEGHAK in human Huh-7 cells at 1 uM by KiNativ Profiling analysis relative to control. The format is cell-based.

In assay [15] the target is Cyclin-dependent kinase 12 (Homo sapiens) (UniProt Q9NYV4). As to the kind of experiment: Inhibition of CRK7 Lys2 labeling site in human Huh-7 cell lysate at 1 uM by KiNativ Profiling analysis relative to control. The format is subcellular.

The values that follow come from ChEMBL document CHEMBL5696442, “Discovery of type II inhibitors of TGFβ-activated kinase 1 (TAK1) and mitogen-activated protein kinase kinase kinase kinase 2 (MAP4K2)” (J Med Chem, 2015).

Molecules are shown by their SMILES. Active and inactive are the calls of the source. The calls are words filed in the database; no cut-off is given here.

Serine/threonine-protein kinase 4 (Homo sapiens), sequence (Q13043 whole entry, looked up): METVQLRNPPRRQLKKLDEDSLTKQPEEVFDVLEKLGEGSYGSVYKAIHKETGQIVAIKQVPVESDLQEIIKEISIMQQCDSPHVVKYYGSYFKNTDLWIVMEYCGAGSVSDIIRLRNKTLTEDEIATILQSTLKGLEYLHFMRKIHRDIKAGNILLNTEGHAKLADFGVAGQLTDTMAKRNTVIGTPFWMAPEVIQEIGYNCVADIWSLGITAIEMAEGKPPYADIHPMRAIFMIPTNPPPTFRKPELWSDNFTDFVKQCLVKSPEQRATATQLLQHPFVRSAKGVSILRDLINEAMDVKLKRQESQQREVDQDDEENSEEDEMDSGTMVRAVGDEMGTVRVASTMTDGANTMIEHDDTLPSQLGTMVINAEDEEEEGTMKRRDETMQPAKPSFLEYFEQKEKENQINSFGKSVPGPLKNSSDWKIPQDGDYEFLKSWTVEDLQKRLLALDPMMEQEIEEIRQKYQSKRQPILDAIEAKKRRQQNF
Serine/threonine-protein kinase SIK1 (Homo sapiens), sequence (P57059 whole entry): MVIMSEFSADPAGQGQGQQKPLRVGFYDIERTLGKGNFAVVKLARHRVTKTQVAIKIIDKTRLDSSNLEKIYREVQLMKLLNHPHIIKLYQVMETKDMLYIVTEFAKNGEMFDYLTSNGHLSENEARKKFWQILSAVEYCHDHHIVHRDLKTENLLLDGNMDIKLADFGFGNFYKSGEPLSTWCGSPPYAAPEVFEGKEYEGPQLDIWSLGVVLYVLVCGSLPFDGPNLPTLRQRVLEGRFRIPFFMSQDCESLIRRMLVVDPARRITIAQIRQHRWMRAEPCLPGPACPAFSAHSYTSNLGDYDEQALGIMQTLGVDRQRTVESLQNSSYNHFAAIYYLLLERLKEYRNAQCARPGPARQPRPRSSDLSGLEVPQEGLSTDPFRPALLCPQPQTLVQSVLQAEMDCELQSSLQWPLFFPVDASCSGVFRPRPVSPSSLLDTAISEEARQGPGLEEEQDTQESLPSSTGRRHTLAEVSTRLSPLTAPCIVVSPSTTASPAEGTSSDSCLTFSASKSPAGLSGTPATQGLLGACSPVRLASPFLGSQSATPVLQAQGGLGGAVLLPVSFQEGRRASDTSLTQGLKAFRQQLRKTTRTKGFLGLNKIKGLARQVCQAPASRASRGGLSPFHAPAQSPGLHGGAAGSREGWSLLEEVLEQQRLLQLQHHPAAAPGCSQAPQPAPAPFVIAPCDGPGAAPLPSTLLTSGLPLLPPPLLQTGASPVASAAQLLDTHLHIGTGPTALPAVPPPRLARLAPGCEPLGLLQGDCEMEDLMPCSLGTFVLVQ
Putative phosphatidylinositol 4-kinase alpha-like protein P2 (Homo sapiens), sequence (A4QPH2 whole entry): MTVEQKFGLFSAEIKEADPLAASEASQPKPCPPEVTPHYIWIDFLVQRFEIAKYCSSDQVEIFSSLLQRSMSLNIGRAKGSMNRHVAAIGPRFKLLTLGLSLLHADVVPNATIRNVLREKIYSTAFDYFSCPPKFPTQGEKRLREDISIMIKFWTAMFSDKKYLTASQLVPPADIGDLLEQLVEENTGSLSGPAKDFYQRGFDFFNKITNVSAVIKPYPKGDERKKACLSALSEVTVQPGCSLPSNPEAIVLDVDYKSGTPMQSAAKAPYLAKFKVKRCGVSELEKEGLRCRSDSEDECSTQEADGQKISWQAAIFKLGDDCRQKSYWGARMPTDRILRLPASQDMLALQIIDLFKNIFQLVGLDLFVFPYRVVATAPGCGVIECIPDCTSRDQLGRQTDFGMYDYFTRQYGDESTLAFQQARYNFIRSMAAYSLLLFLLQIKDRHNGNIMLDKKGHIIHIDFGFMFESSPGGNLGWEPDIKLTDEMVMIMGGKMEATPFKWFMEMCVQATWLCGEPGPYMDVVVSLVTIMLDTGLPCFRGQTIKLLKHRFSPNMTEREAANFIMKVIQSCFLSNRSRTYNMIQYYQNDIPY

By inhibition is commonly meant the relative decrease from the control value, in per cent. For the compound `CCN1CCN(Cc2ccc(NC(=O)c3ccc(C)c(/C=C/c4cnc5[nH]ccc5c4OC)c3)cc2C(F)(F)F)CC1`, the inhibition worked out at 16.1% in assay [1] and 0.8% in assay [2].
For the compound `CCN1CCN(Cc2ccc(NC(=O)c3ccc(C)c(Oc4ccnc5[nH]ccc45)c3)cc2C(F)(F)F)CC1`, the inhibition in [3] was -4.6%; in [5], 2.9%; in assay [6], 0.4%; in [7], 6.6%; in assay [8] it was 0%; in assay [9], 15.7%. Besides, the inhibition in [10] stood at 20%. The inhibition entry in assay [4] was “inactive”.
Take `CNc1cc(Oc2cc(C(=O)Nc3cc(N4CCN(C)CC4)cc(C(F)(F)F)c3)ccc2C)ncn1`: the inhibition in assay [11] was -5.8%; in assay [12], 0.2%; in assay [13] it was -2.3%; in assay [14] it was -0.8%; in [15], -8.3%.
